In assay [1] the target is T1, aurora B-INCENP enzyme (Homo sapiens, UniProt Q96GD4).
T1 construct: 6-histidine; purchased Upstate
The assay can be described thus: In vitro aurora B kinase inhibition test. The class given is biochemical. To be noted: 33P incorporation into peptide substrate, 60 minutes at room temperature, read-out: IC50 (50% inhibition of enzyme activity), aurora B kinase. The text has this:
(b) In Vitro Aurora B Kinase Inhibition Test
This assay determines the ability of a test compound to inhibit serine-threonine kinase activity. DNA encoding aurora B may be obtained by total gene synthesis or by cloning. This DNA may then be expressed in a suitable expression system to obtain polypeptide with serine-threonine kinase activity. In the case of aurora B, the coding sequence was isolated from cDNA by polymerase chain reaction (PCR) and cloned into the pFastBac system in a manner similar to that described above for aurora A (i.e. to direct expression of a 6-histidine tagged aurora B protein).
For the large scale expression of aurora B kinase activity, Sf21 insect cells were grown at 28° C. in TC100 medium supplemented with 10% foetal calf serum (Viralex) and 0.2% F68 Pluronic (Sigma) on a Wheaton roller rig at 3 r.p.m. When the cell density reached 1.2×10^6 cells ml^−1 they were infected with plaque-pure aurora B recombinant virus at a multiplicity of infection of 1 and harvested 48 hours later. All subsequent purification steps were performed at 4° C. Frozen insect cell pellets containing a total of 2.0×10^8 cells were thawed and diluted with lysis buffer (50 mM HEPES (N-[2-hydroxyethyl]piperazine-N′-[2-ethanesulphonic acid]) pH7.5 at 4° C., 1 mM Na3VO4, 1 mM PMSF (phenylmethylsulphonyl fluoride), 1 mM dithiothreitol, 1 μg/ml aprotinin, 1 μg/ml pepstatin, 1 μg/ml leupeptin), using 1.0 ml per 2×10^7 cells. Lysis was achieved using a sonication homogeniser, following which the lysate was centrifuged at 41,000 g for 35 minutes. Aspirated supernatant was pumped onto a 5 mm diameter chromatography column containing 1.0 ml CM sepharose Fast Flow (Amersham Pharmacia Biotech) which had been equilibrated in lysis buffer. A baseline level of UV absorbance for the eluent was reached after washing the column with 12 ml of lysis buffer followed by 7 ml of wash buffer (50 mM HEPES pH7.4 at 4° C., 1 mM dithiothreitol). […]

The test system of assay [2] is drug-resistant MCF7-ADR human breast tumour cells. Put plainly: In vitro drug-resistant cell phenotype and substrate phosphorylation assay (phosphohistone H3 levels). Type of assay: cell-based. To be noted: NCI/ADR-RES, 24 hours of treatment, read-out: IC50 (inhibition of phosphohistone H3 levels). Here is the method:
(d) In Vitro Drug-Resistant Cell Phenotype and Substrate Phosphorylation Assay.
This assay is used to determine the cellular effects of compounds on drug-resistant MCF7-ADR human breast tumour cells in vitro.
Compounds typically cause inhibition of levels of phosphohistoneH3 and an increase in the nuclear area of treated cells.
0.8×10^4 MCF7-ADR cells per well were plated in 100 μl DMEM media (containing 10% FCS (foetal calf serum) and 1% glutamine) in costar 96 well plates and left overnight at 37° C. and 5% CO2 to adhere.
All other procedures are identical to those for the above assay using SW620 cells.
The compounds of the invention generally have EC50 values for inhibition of phosphohistone H3 levels of 0.5 nM to 0.1 μM.

For assay [3], the system named is SW620 human colon tumour cells. Put plainly: In vitro cell phenotype and substrate phosphorylation assay (phosphohistone H3 levels). The class given is cell-based. The settings on record: SW-620, 24 hours of treatment, read-out: IC50 (inhibition of phosphohistone H3 levels). The procedure: (c) In Vitro Cell Phenotype and Substrate Phosphorylation Assay
This assay is used to determine the cellular effects of compounds on SW620 human colon tumour cells in vitro. Compounds typically cause inhibition of levels of phosphohistone H3 and an increase in the nuclear area of the cells.
10^4 SW620 cells per well were plated in 100 μl DMEM media (containing 10% FCS and 1% glutamine) (DMEM is Dulbecco's Modified Eagle's Medium (Sigma D6546)) in costar 96 well plates and left overnight at 37° C. and 5% CO2 to adhere. The cells were then dosed with compound diluted in media (50 μl is added to each well to give 0.00015μ-1 μM concentrations of compound) and after 24 hours of treatment with compound, the cells were fixed.
The cells were first examined using a light microscope and any cellular changes in morphology were noted. 100 μl of 3.7% formaldehyde was then added to each well, and the plate was left for at least 30 minutes at room temperature. Decanting and tapping the plate on a paper towel removed the fixative and plates were then washed once in PBS (Dulbecco's Phosphate Buffered Saline (Sigma D8537)) using an automated plate washer. 100 μl PBS and 0.5% triton X-100 was added and the plates were put on a shaker for 5 minutes. The plates were washed in 100 μl PBS and solution tipped off. 50 μl of primary antibody, 1:500 rabbit anti-phosphohistone H3 in PBS 1% BSA (bovine serum albumin) and 0.5% tween, was added. Anti-phosphohistone H3 rabbit polyclonal 06-750 was purchased from Upstate Biotechnology. The plates were left 1 hour at room temperature on a shaker.
The next day, the antibody was tipped off and the plates were washed twice with PBS. In an unlit area, 50 μl of secondary antibody, 1:10,000 Hoechst and 1:200 Alexa Fluor 488 goat anti rabbit IgGA (cat no. 11008 molecular probes) in PBS 1% BSA, 0.5% tween was added. The plates were wrapped in tin foil and shaken for 1 hour at room temperature. The antibody was tipped off and plates were washed twice with PBS. […] 100 μl PBS was added to each well and the plates were sealed ready to analyse. […]

T1 sequence (Q96GD4 whole entry): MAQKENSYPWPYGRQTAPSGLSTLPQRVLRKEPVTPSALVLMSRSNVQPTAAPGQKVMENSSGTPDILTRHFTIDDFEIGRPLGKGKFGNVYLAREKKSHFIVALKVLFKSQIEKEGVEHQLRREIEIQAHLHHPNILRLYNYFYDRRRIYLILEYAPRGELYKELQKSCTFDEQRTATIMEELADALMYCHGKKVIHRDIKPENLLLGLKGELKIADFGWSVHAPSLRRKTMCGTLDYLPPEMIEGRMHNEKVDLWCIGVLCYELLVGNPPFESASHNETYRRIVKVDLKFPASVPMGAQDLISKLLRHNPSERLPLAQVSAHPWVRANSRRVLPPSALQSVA
T1 sequence (Q9NQS7 826-918 partner): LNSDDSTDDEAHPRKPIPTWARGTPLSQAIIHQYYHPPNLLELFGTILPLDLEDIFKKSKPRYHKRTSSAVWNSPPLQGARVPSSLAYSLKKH

On to `CCOc1cc(OC[C@H]2CCCN2)c2c(Nc3cnn(CC(=O)Nc4cccc(F)c4F)c3)ncnc2c1` [Compound 2, N-(2,3-difluorophenyl)-2-[4-({7-ethoxy-5-[(2R)-pyrrolidin-2-ylmethoxy]quinazolin-4-yl}amino)-1H-pyrazol-1-yl]acetamide], for which the IC50 amounted to 0.5 nM in assay [1], 20 nM in assay [2] and 2 nM in assay [3].
On to `CCOc1cc(OC[C@H]2CCCN2C)c2c(Nc3cnn(CC(=O)Nc4cccc(F)c4F)c3)ncnc2c1` [Compound 1, N-(2,3-difluorophenyl)-2-{4-[(7-ethoxy-5-{[(2R)-1-methylpyrrolidin-2-yl]methoxy}quinazolin-4-yl)amino]-1H-pyrazol-1-yl}acetamide], for which the IC50 in assay [1] was 0.5 nM; in assay [2] it was 17 nM; in assay [3] it was 5.5 nM.
Take `CCOc1cc(OC[C@H]2COCCN2)c2c(Nc3cnn(CC(=O)Nc4cccc(F)c4F)c3)ncnc2c1` [Compound 3, N-(2,3-difluorophenyl)-2-[4-({7-ethoxy-5-[(3R)-morpholin-3-ylmethoxy]quinazolin-4-yl}amino)-1H-pyrazol-1-yl]acetamide]: the half-inhibitory concentration (IC50) in assay [1] was 0.1 nM; in assay [2], 4 nM; in assay [3] it was 2 nM.

Source of the values: US20080194556A1, “Quinazolines and Their Use as Aurora Kinase Inhibitors” (ASTRAZENECA AB, priority 2005, published 2008).
